Measurements from PMC8957573 (Journal of Natural Products, 2022).

Molecular target: T1, TAK1 (Homo sapiens, UniProt O43318)
T1 sequence (O43318 1-303 limits assumed): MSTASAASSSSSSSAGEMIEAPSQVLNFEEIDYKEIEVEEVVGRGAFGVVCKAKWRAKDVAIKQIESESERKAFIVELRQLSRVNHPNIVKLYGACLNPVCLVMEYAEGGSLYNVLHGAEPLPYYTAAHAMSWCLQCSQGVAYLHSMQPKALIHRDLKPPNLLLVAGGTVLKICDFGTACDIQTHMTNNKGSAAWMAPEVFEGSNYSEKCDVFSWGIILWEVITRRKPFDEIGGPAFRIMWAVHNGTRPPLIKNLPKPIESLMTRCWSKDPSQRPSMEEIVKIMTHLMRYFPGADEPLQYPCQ
Assay: TAK1 inhibition assay
Assay type: biochemical
Conditions: cis-enone RALs

COc1cc(O)c2c(c1)[C@H]1O[C@@H]1C[C@H](O)[C@H](O)C(=O)/C=C\C[C@H](C)OC2=O [Hypothemycin (1), Hypothemycin]
Inhibitory activity against TAK1 (in words): inhibit TAK1
